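96-well plates; 48 h exposure; 5 concentrations. Endpoints by linear interpolation between flanking doses. Not reached: highest tested concentration assigned. GI50: concentration for 50% inhibition of growth.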 Activity calls are given as the source filed them. Rule as the data show it: active = GI50 up to about 1.1 µM and inactive = higher. A value given as a limit tells only on which side of the number the result lay.

What all share (experiment): NCI tumour cell line growth inhibition, 48 h
Assay [1] concerns Hs-578T.
Assay [2] has as its system M14.
Assay [3] concerns SF-539.
For assay [4], the system named is NCI-H522.
For assay [5], the system named is SK-MEL-28.
Assay [6] concerns SNB-19.
The test system of assay [7] is SF-295.
Assay [8] deals with UACC-62.
For assay [9], the system named is HCT-116.
Assay [10] deals with SR.
Assay [11] deals with MDA-N.
In assay [12] the test system is MDA-MB-435.
The subject of assay [13] is SK-OV-3.
In assay [14] the test system is RPMI-8226.
Assay [15] deals with HT-29.
Assay [16] concerns MOLT-4.
The test system of assay [17] is HOP-92.
The test system of assay [18] is EKVX.
Assay [19] relates to DU-145.
The test system of assay [20] is HCC 2998.

As to `CN1CN(c2ccccc2)C2(CCN(C(=O)OC(C)(C)C)CC2)C1=O`, the GI50 in assay [1] is 57 µM (inactive); in assay [2], > 100 µM (inactive); in assay [3] it was > 100 µM (inactive); in assay [4], > 100 µM (inactive); in assay [5] it was > 100 µM (inactive); in assay [6], > 100 µM (inactive). The GI50 in assay [7], in [8], in assay [9], in [10], in assay [11] and in assay [12] was > 100 µM (inactive) in each case. The GI50 in assay [13] was > 100 µM (inactive); in [14], 98.2 µM (inactive); in assay [15] it was > 100 µM (inactive); in assay [16], > 100 µM (inactive); in assay [17], 32.4 µM (inactive); in [18], > 100 µM (inactive). Moreover, the GI50 in assay [19] and in assay [20] was > 100 µM (inactive) throughout.

With `O=C1CC(n2cccc2)c2c(Br)sc(Br)c21` (stereo not given), the GI50 in assay [1] was 25.1 µM (inactive); in [2], 14.9 µM (inactive); in [3], 17.6 µM (inactive); in [4], 1.49 µM (inactive); in [5], 20.3 µM (inactive); in assay [6], 14.9 µM (inactive). Moreover, the GI50 in assay [7] is 23.3 µM (inactive); in assay [8] it was 15.9 µM (inactive); in assay [9] it was 15.3 µM (inactive); in assay [10], 3.89 µM (inactive); in assay [11], 16.3 µM (inactive); in assay [12], 14.4 µM (inactive). In addition, the GI50 in assay [13] was 19.4 µM (inactive); in [14], 8.24 µM (inactive); in assay [15] it was 16.6 µM (inactive); in assay [16], 8.93 µM (inactive); in [17], 16.1 µM (inactive); in assay [18] it was 16 µM (inactive). Also, the GI50 in [19] was 16.6 µM (inactive); in [20], 15.4 µM (inactive).

For `C[C@H](CO)C1=CC(C#C[Si](C)(C)C)N(C(=O)Oc2ccccc2)c2ccccc21` (stereo not given in full), the GI50 in assay [1] is 10.2 µM (inactive); in assay [2] it was 7.69 µM (inactive); in [3], 16 µM (inactive); in assay [4], 3.94 µM (inactive); in assay [5] it was 16.6 µM (inactive); in assay [6] it was 15.8 µM (inactive). The GI50 in assay [7] is 3.86 µM (inactive); in assay [8], 5.3 µM (inactive); in assay [9] it was 10.8 µM (inactive); in assay [10] it was 3.4 µM (inactive); in [11], 3.58 µM (inactive); in assay [12] it was 2.26 µM (inactive). The GI50 in assay [13] is 11.6 µM (inactive); in assay [14] it was 20 µM (inactive); in assay [15] it was 4.92 µM (inactive); in assay [16], 9.12 µM (inactive); in assay [17] it was 12.9 µM (inactive); in assay [18], 13.3 µM (inactive). Further, the GI50 was 16.9 µM (inactive) in [19] and 10.6 µM (inactive) in assay [20].

With `COc1ccc(/C=C2\CCC(CN(C)C)C2=O)cc1` (stereo not given), the GI50 was 3.82 µM (inactive) in assay [1]; 2.54 µM (inactive) in [2]; 7.83 µM (inactive) in [3]; 1.1 µM (active) in [4]; 5.75 µM (inactive) in assay [5]; 10.3 µM (inactive) in assay [6]. The GI50 was 17.9 µM (inactive) in [7]; 8.91 µM (inactive) in assay [8]; 2.29 µM (inactive) in assay [9]; 1.26 µM (inactive) in assay [10]; 3.44 µM (inactive) in assay [11]; 1.88 µM (inactive) in [12]. For the same compound, the GI50 in assay [13] was 17.6 µM (inactive); in [14], 0.832 µM (active); in [15] it was 3.5 µM (inactive); in assay [16], 1.83 µM (inactive); in assay [17], 6.1 µM (inactive); in assay [18], 17.8 µM (inactive). Also, the GI50 in assay [19] is 2.94 µM (inactive); in assay [20] it was 8.13 µM (inactive).

In the case of `N#Cc1c(-c2ccc(Cl)cc2)c(-c2ccc(Cl)cc2)nn(CCOC(=O)CCC(=O)O)c1=O`, the GI50 is 1.38 µM (inactive) in assay [1]; 0.399 µM (active) in [2]; 0.421 µM (active) in [3]; 0.51 µM (active) in assay [4]; 5.47 µM (inactive) in assay [5]; 2.65 µM (inactive) in [6]. Also, the GI50 in assay [7] was 0.522 µM (active); in assay [8], 0.26 µM (active); in assay [9], 0.6 µM (active); in assay [10], 0.291 µM (active); in assay [11], 0.08 µM (active); in [12], 0.0773 µM (active). For the same compound, the GI50 in assay [13] is 0.778 µM (active); in assay [14], 0.76 µM (active); in assay [15], 0.796 µM (active); in assay [16], 0.566 µM (active); in [17], < 0.01 µM (active); in assay [18], 2.69 µM (inactive). In addition, the GI50 is 0.615 µM (active) in [19] and 0.618 µM (active) in assay [20].

As to `CC(C)COC(=O)OC(=O)c1ccc(N(C)Cc2cnc3nc(N)nc(N)c3n2)cc1`, the GI50 in assay [1] is > 100 µM (inactive); in assay [2] it was 9.44 µM (inactive); in [3], 10.8 µM (inactive); in assay [4] it was 23.1 µM (inactive); in assay [5] it was > 86.1 µM (inactive); in assay [6], 16.1 µM (inactive). Moreover, the GI50 in [7] is 15.7 µM (inactive); in assay [8], 6.53 µM (inactive); in assay [9], 2.43 µM (inactive); in assay [10], 0.521 µM (active); in assay [11], 7.96 µM (inactive); in assay [12], > 100 µM (inactive). Besides, the GI50 in assay [13] was > 100 µM (inactive); in assay [14] it was > 80.9 µM (inactive); in assay [15] it was 26.9 µM (inactive); in assay [16] it was 4.31 µM (inactive); in assay [17], 47.5 µM (inactive); in [18], > 52.7 µM (inactive). Further, the GI50 was 53.7 µM (inactive) in assay [19] and > 100 µM (inactive) in assay [20].

Turning to `COC(=O)C1=C(O)C(C(=O)OC)[C@]2(O)[C@H](C(=O)OC)[C@H]1C[C@@H](c1ccccc1OC)[C@H]2C(=O)OC` (stereo not given in full), the GI50 is 2.49 µM (inactive) in assay [1]; 2.88 µM (inactive) in assay [2]; 2.71 µM (inactive) in assay [3]; 1.84 µM (inactive) in assay [4]; 7.87 µM (inactive) in assay [5]; 5.24 µM (inactive) in assay [6]. Further, the GI50 in assay [7] is 6.08 µM (inactive); in [8], 4.24 µM (inactive); in assay [9], 3.65 µM (inactive); in [10], 1.93 µM (inactive); in [11], 1.98 µM (inactive); in assay [12] it was 2.71 µM (inactive). The GI50 was 4.33 µM (inactive) in assay [13]; 2.17 µM (inactive) in assay [14]; 4.82 µM (inactive) in assay [15]; 3.59 µM (inactive) in assay [16]; 2.34 µM (inactive) in assay [17]; 8.07 µM (inactive) in assay [18]. In addition, the GI50 in assay [19] was 5.07 µM (inactive); in [20], 10.5 µM (inactive).

As for `COc1c(C(CC(C)C)OC(C)=O)ccc2c1C(=O)OCc1cc(C)cc(O)c1O2` (stereo not given), the GI50 is 22.1 µM (inactive) in [1]; 16.7 µM (inactive) in assay [2]; 18.2 µM (inactive) in [3]; 13.2 µM (inactive) in [4]; 15.8 µM (inactive) in [5]; 14.8 µM (inactive) in assay [6]. For the same compound, the GI50 in assay [7] is 14.4 µM (inactive); in [8], 12.7 µM (inactive); in [9] it was 12.6 µM (inactive); in assay [10] it was > 100 µM (inactive); in assay [11], 15.1 µM (inactive); in assay [12], 13.7 µM (inactive). In addition, the GI50 in assay [13] is 15.8 µM (inactive); in assay [14], > 100 µM (inactive); in assay [15] it was 17.8 µM (inactive); in assay [16] it was 12.8 µM (inactive); in [17], 11.9 µM (inactive); in [18], 11.8 µM (inactive). The GI50 is 12.5 µM (inactive) in assay [19] and 12.8 µM (inactive) in [20].

In the case of `CN1CSC(=S)N(c2c3ccccc3nc3ccc(Br)cc23)C1`, the GI50 in assay [1] was 17.8 µM (inactive); in assay [2], 13.1 µM (inactive); in assay [3] it was 11.6 µM (inactive); in assay [4], 4.4 µM (inactive); in assay [5] it was 16.9 µM (inactive); in [6], 12.5 µM (inactive). Also, the GI50 in [7] is 6.7 µM (inactive); in assay [8], 14 µM (inactive); in assay [9], 4.28 µM (inactive); in assay [10], 0.796 µM (active); in assay [11], 10.4 µM (inactive); in assay [12] it was 8.67 µM (inactive). The GI50 in [13] is 12.9 µM (inactive); in assay [14], 7.71 µM (inactive); in assay [15] it was 5.42 µM (inactive); in assay [16], 0.783 µM (active); in assay [17], 16.3 µM (inactive); in assay [18] it was 12.9 µM (inactive). For the same compound, the GI50 in [19] is 8.09 µM (inactive); in [20], 2.79 µM (inactive).

Turning to `Cc1nc2c(sc3nc4c(cc32)CCC4)c(=O)o1`, the GI50 in assay [1] is 45.9 µM (inactive); in assay [2], 64.3 µM (inactive); in assay [3] it was 40.5 µM (inactive); in assay [4] it was 31 µM (inactive); in assay [5], 46.7 µM (inactive); in [6], > 53.2 µM (inactive). For the same compound, the GI50 is > 100 µM (inactive) in [7]; > 100 µM (inactive) in assay [8]; 32.8 µM (inactive) in [9]; 39.3 µM (inactive) in assay [10]; 38.7 µM (inactive) in assay [11]; 36.6 µM (inactive) in [12]. Further, the GI50 in [13] is > 100 µM (inactive); in assay [14], 48.9 µM (inactive); in [15] it was 36.7 µM (inactive); in assay [16], 41.9 µM (inactive); in assay [17], > 50.1 µM (inactive); in assay [18], > 100 µM (inactive). Also, the values for the GI50 in assay [19] and in assay [20] were > 100 µM (inactive) and 28.6 µM (inactive), respectively.

The values are drawn from ChEMBL document CHEMBL1201862, “PubChem BioAssay data set” (2004).
